In PubChem BioAssay (NCI):
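Growth conditions: 96-well plates. Treatment: test compound, 48 hours, 5 concentrations. Analysis: linear interpolation between bracketing concentrations; unreached endpoints set to highest concentration. At the TGI there is no net growth.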

Tests used:
Assay in all cases: NCI tumour cell line growth inhibition, 48 h
[1] = system: MOLT-4 leukemia
[2] = system: ACHN renal
[3] = system: DMS 114 small cell lung
[4] = system: HOP-92 NSCLC
[5] = system: SNB-78 CNS
[6] = system: HCT-15 colon
[7] = system: OVCAR-4 ovarian
[8] = system: MALME-3M melanoma
[9] = system: HOP-62 NSCLC
[10] = system: 786-0 renal
[11] = system: M19-MEL melanoma
[12] = system: SR leukemia
[13] = system: SK-MEL-28 melanoma
[14] = system: SNB-75 CNS
[15] = system: UO-31 renal
[16] = system: A549 NSCLC
[17] = system: A498 renal
[18] = system: SK-OV-3 ovarian
[19] = system: UACC-257 melanoma
[20] = system: SNB-19 CNS
[21] = system: RPMI-8226 leukemia
[22] = system: SN12C renal
[23] = system: DMS 273 small cell lung
[24] = system: LXFL 529 NSCLC
[25] = system: OVCAR-5 ovarian
[26] = system: K-562 leukemia
[27] = system: NCI-H460 lung
[28] = system: OVCAR-8 ovarian
[29] = system: SK-MEL-5 melanoma
[30] = system: NCI-H23 lung
[31] = system: HT29 colon
[32] = system: NCI-H226 lung
[33] = system: EKVX NSCLC
[34] = system: SW-620 colon
[35] = system: SF-295 CNS
[36] = system: SF-539 CNS
[37] = system: KM12 colon
[38] = system: RXF-631 renal
[39] = system: NCI-H522 lung
[40] = system: SF-268 CNS
[41] = system: CCRF-CEM leukemia
[42] = system: XF 498 CNS
[43] = system: RXF 393 renal
[44] = system: U251 CNS
[45] = system: HL-60(TB) leukemia
[46] = system: COLO 205 colon
[47] = system: KM20L2 colon
[48] = system: CAKI-1 renal
[49] = system: DLD-1 colon
[50] = system: M14 melanoma
[51] = system: HCC-2998 colon
[52] = system: IGROV1 ovarian
[53] = system: HCT-116 colon
[54] = system: SK-MEL-2 melanoma
[55] = system: UACC-62 melanoma
[56] = system: LOX IMVI melanoma
[57] = system: TK-10 renal
[58] = system: OVCAR-3 ovarian

O=C(CCc1cc(-c2ccco2)n(-c2ccc([N+](=O)[O-])cc2[N+](=O)[O-])n1)Nc1ccccc1
TGI [1]: > 100 µM
TGI [2]: > 100 µM
TGI [3]: > 100 µM
TGI [4]: > 100 µM
TGI [5]: > 100 µM
TGI [6]: > 100 µM
TGI [7]: > 100 µM
TGI [8]: 94.2 µM
TGI [9]: > 100 µM
TGI [10]: > 100 µM
TGI [11]: > 100 µM
TGI [12]: > 100 µM
TGI [13]: > 100 µM
TGI [14]: > 100 µM
TGI [15]: > 100 µM
TGI [16]: > 100 µM
TGI [17]: > 100 µM
TGI [18]: > 100 µM
TGI [19]: > 100 µM
TGI [20]: > 100 µM
TGI [21]: > 100 µM
TGI [22]: > 100 µM
TGI [23]: > 100 µM
TGI [24]: > 100 µM
TGI [25]: > 100 µM
TGI [26]: > 100 µM
TGI [27]: > 100 µM
TGI [28]: > 100 µM
TGI [29]: > 100 µM
TGI [30]: > 100 µM
TGI [31]: > 100 µM
TGI [32]: > 100 µM
TGI [33]: > 100 µM
TGI [34]: > 100 µM
TGI [35]: > 100 µM
TGI [36]: > 100 µM
TGI [37]: > 100 µM
TGI [38]: > 100 µM
TGI [39]: > 100 µM
TGI [40]: > 100 µM
TGI [41]: > 100 µM
TGI [42]: > 100 µM
TGI [43]: > 100 µM
TGI [44]: > 100 µM
TGI [45]: > 100 µM
TGI [46]: > 100 µM
TGI [47]: > 100 µM
TGI [48]: > 100 µM
TGI [49]: > 100 µM
TGI [50]: > 100 µM
TGI [51]: > 100 µM
TGI [52]: > 100 µM
TGI [53]: > 100 µM
TGI [54]: > 100 µM
TGI [55]: > 100 µM

COC1=CC(=O)C2[C@H]3Cc4ccccc4[C@H]3C2(C)C1=O (some centres undefined)
TGI [1]: > 100 µM
TGI [2]: > 100 µM
TGI [4]: > 100 µM
TGI [5]: > 100 µM
TGI [6]: > 100 µM
TGI [7]: > 100 µM
TGI [8]: > 100 µM
TGI [9]: > 100 µM
TGI [10]: > 100 µM
TGI [11]: > 100 µM
TGI [12]: > 100 µM
TGI [13]: > 100 µM
TGI [14]: > 100 µM
TGI [15]: > 100 µM
TGI [16]: > 100 µM
TGI [17]: > 100 µM
TGI [18]: > 100 µM
TGI [19]: > 100 µM
TGI [20]: > 100 µM
TGI [21]: > 100 µM
TGI [23]: > 100 µM
TGI [24]: > 100 µM
TGI [25]: > 100 µM
TGI [26]: > 100 µM
TGI [27]: > 100 µM
TGI [28]: > 100 µM
TGI [29]: > 100 µM
TGI [30]: > 100 µM
TGI [31]: > 100 µM
TGI [32]: > 100 µM
TGI [33]: > 100 µM
TGI [34]: > 100 µM
TGI [35]: > 100 µM
TGI [36]: > 100 µM
TGI [37]: > 100 µM
TGI [38]: > 100 µM
TGI [39]: > 100 µM
TGI [40]: > 100 µM
TGI [41]: > 100 µM
TGI [42]: > 100 µM
TGI [43]: > 100 µM
TGI [44]: > 100 µM
TGI [46]: > 100 µM
TGI [56]: > 100 µM
TGI [47]: > 100 µM
TGI [48]: > 100 µM
TGI [49]: > 100 µM
TGI [57]: > 100 µM
TGI [50]: > 100 µM
TGI [58]: > 100 µM
TGI [51]: > 100 µM
TGI [52]: > 100 µM
TGI [54]: > 100 µM
TGI [55]: > 100 µM
